Experimental findings from PMC11066877, “Development and Characterization of Novel FAP-Targeted Theranostic Pairs: A Bench-to-Bedside Study” (Research, 2023) are described below.

In general, tissue uptake refers to the percentage of the injected dose found per gram of tissue. Higher therefore signals strong accumulation.

Holding throughout (format): in vivo, mice
Series [1] in a line: microPET/CT imaging, ROI analysis, Panc-02 tumor models. As to conditions: C57BL/6, mouse, intravenous, 3 MBq, 4 h p.i. The procedure:
(§1) A human pancreatic cancer cell line BxPC-3 and a murine pancreatic cancer cell Panc-02 were obtained from the American Type Culture Collection. The pancreatic cancer cell line T3M-4 was purchased by MeisenCTCC (Zhejiang, China). BxPC-3 and T3M-4 cell lines were grown in RPMI 1640 medium (Shanghai BasalMedia Technologies Co., LTD.) containing 10% FBS (GE Healthcare, Chicago, IL, USA) and 1% penicillin–streptomycin solution (Invitrogen). To culture the Panc-02 cell line, a medium called Dulbecco’s modified Eagle medium from Shanghai BasalMedia Technologies Co., LTD. was used, which consisted of 10% FBS. The cell line HT-1080 was grown in MEM medium (Shanghai BasalMedia Technologies Co., LTD.) supplemented with 10% FBS, 1% penicillin-streptomycin solution, and 1% nonessential amino acids (NEAA-11140050; Gibco). A human fibrosarcoma cell line was stably transfected with FAP (HT1080-FAP) and cultured, as we previously described. All cell lines were cultured in a humid incubator with 5% CO2 at a temperature of 37 °C. Approval was granted by the Institutional Animal Care and Use Committee (Renji Hospital, School of Medicine, Shanghai Jiao Tong University) for all experimental protocols and procedures related to animal care. Panc-02 cells were implanted by subcutaneous injection of 5 × 10^6 tumor cells suspended in 100 μl PBS and matrigel matrix (Corning) with equal volume into the upper limb flank of C57BL/6 mice (Shanghai Sheng Chang Biotechnology Co., Ltd.). Four- to 6-week-old thymus-free nude mice (GemPharmatech) were subcutaneously inoculated with BxPC-3, T3M-4, HT-1080, and HT1080-FAP cells (5 × 10^6 in 100 μl of PBS mixing with 100 μl matrigel matrix) in the right shoulder. […]
(§2) MicroPET imaging was performed on isoflurane-anesthetized mice injected intravenously via the lateral tail vein with around 3 MBq (2.5 nmol) of the radioligand at certain times. […] The information was analyzed using OsiriX Lite software (Pixmeo SARL) and Inveon Research Workplace (Siemens Preclinical Solutions). […]

Series [2] in a line: microPET/CT imaging, ROI analysis, BxPC-3 tumor models. Particulars: nude (thymus-free), mouse, intravenous, 3 MBq, 4 h p.i. The procedure:
as §1, §2

A short description of series [3]: microPET/CT imaging, ROI analysis, HT-1080 tumor models. As to conditions: nude (thymus-free), mouse, intravenous, 3 MBq, 4 h p.i. The procedure:
as §1, §2

For `CCCCCC(=O)N[C@H]1CSCc2cc(CSCCNC(=O)[C@H](CCCCNC(=O)CCCc3ccc(I)cc3)NC(=O)[C@@H](NC(=O)[C@H](CCSC)NC(=O)CN3CCN(CC(=O)O)CCN(CC(=O)O)CCN(CC(=O)O)CC3)C(C)C)cc(c2)CSC[C@@H](C(=O)O)NC(=O)[C@H](Cc2ccccc2)NC(=O)[C@H](CCC(N)=O)NC(=O)[C@H]([C@@H](C)O)NC(=O)[C@@H]2CCCN2C(=O)[C@@H]2CCCN2C1=O` [[^68Ga]Ga-DOTA-FD3, metal not drawn], the tissue uptake at 4 h in series [1] came out at 7.03 ± 1 %ID/g; in series [2], 7.07 ± 0.45 %ID/g; in series [3], 9.97 ± 0.42 %ID/g.
